We go through one substance from patent publication US20100184703A1, “USE OF PEPTIDE DERIVATIVES FOR TREATING PATHOLOGIES RESULTING FROM ISCHEMIA” (CHIESI FARMACEUTICI S.p.A., priority 2007, published 2010).

The assay relates to ANF, BNP, fibronectin, β-MHC, TNFR1, TNFR2, TNFα, caspase-2 mRNA. Briefly: Quantitative RT-PCR of heart failure, fibrosis, hypertrophy and TNFα signaling markers after ischemia/reperfusion. Format: in vivo, rat. To be noted: IR model. The procedure:
In a second series of experiments, quantitative RT-PCR was performed to evaluate the level of expression of 2 markers of heart failure, Atrial Natriuretic Factor (ANF) and Brain Natriuretic Factor (BNP) as well as a marker of myocardial fibrosis, fibronectine, and myocardial hypertrophy, βMHC. […] B. mRNA expression levels of fibronectin a marker of fibrosis development, and β-Myosin Heavy Chain (β-MHC) a marker for hypertrophy development

[1] abbreviates: increase in vehicle-injected animals.

In the case of Etanercept, under setting [1], the “mRNA expression level of TNFα” value is reported as “not by Etanercept”, the “mRNA expression level of TNFα receptor 2 (TNFR2)” value is recorded as “not by Etanercept” and the “mRNA expression level of caspase-2” value is on record as “not by Etanercept”. Besides, the “mRNA expression level of fibronectin” value (marker of fibrosis development) is on record as “could only prevent fibrosis development”. Under “marker of heart failure”, the “mRNA expression level of Atrial Natriuretic Factor (ANF)” value is given as “significant increase” and the “mRNA expression level of brain natriuretic peptide (BNP)” value was “significant increase”.
